Source: PMC10090446, “Population pharmacokinetic analysis and dosing optimization of polymyxin B in critically ill patients” (Frontiers in Pharmacology, 2023)
Read-outs that look alike come from different tables or passages of the source. Positions of bridges follow the written chain, without caps; N, C: chain ends. Non-standard residues stand in square brackets, D forms with d. Residues, ends and D or L forms follow the SMILES beside them. *: point of attachment. X1 = CC[C@H](C)CCCCC(=O)*; Dab = NCC[C@H](N)C(=O)O

Assays:
[1] = Steady-state plasma concentrations of polymyxin B (total of B1, B2, B1-Ile) by LC-MS/MS; type: in vivo; details: human, iv, read-out: OUT (observed polymyxin B plasma concentration)
Excerpt: (§1) We gather data from critically ill patients (≥18 years old) who were given intravenous drip polymyxin B treatment with blood concentration monitoring at the hospital from November 2021 to September 2022. The attending physician decided to administer polymyxin B. At the same time, patients who received continuous renal replacement therapy (CRRT) (n = 10) or extracorporeal membrane oxygenation (ECMO) (n = 2) at the time of blood collection were excluded. Patients’ information, including gender, age, WT, serum creatinine (Scr), CCR, ALB, APACHE-II, infection diagnosis, and pathogenic bacteria, were obtained from the electronic system for medical records. CCR was generated by adopting the Cockcroft—Gault equation with WT and age ([Cucci et al., 2022]). The Ethical Committees of the Second Affiliated Hospital of the South China University of Technology authorized the study (K-2022-020-01).
(§2) Patients were treated with polymyxin B, and plasma samples were collected ≥ 48 h after the treatment. Each patient contributed clinical samples, of which 37.5% (n = 24) were sampled with troughs (within 1 h before administration), 35.9% (n = 23) were sampled with peaks (within 1 h after the end of the infusion), and 26.6% (n = 17) were sampled at 6-8 h after the infusion. The dosing regimens of polymyxin B were a loading dose of 100 mg–150 mg and a maintenance dose of 50 mg–75 mg q12h, and the infusion duration was about 1–2 h. In preparation for analysis, samples were centrifuged for 10 min at 3000 r min^-1 after collection, and the upper plasma after centrifugation was stored at −20°C.
(§3) According to previous studies, total polymyxin B1, polymyxin B2, and polymyxin B1-Ile concentrations in human blood plasma were quantified using LC-MS/MS ([Meng et al., 2016]; [Hee et al., 2017]). The standard used in our experiments was the USP standard with the batch number of R104F0. The chromatographic column was the Kinetex C18 (3 μm × 2.1 mm×100 mm. Phenomenex). A: B mobile phase was 0.1% formic acid to acetonitrile. With changes in the linear velocity ratio, gradient elution was as follows: 15% −15% B, 0–2.0 min; 15%–10% B, 2.01–4.0 min; 10%–30% B, 4.01–5.0 min; 15% B, 5.01 min; and 15%–15% B, 5.02–10 min. The flow rate was constrained to 0.8 mL min^-1, and the column temperature was set to 40°C. The parent/daughter ion mass ratios used in the mass spectrometry were m/z 602.6/241.2 (polymyxin B1 and B1-Ile) and m/z 595.6/202.1 (polymyxin B2). Plasma samples (100 μL) were collected from centrifuged blood samples, mixed with 500 μL precipitant (acetonitrile with 6.67% formic acid) and vortexed well for 1 min. The lower limit of quantification (LLOQ) of the bioanalytical method used for quantifying polymyxin B1, B2, and B1-Ile concentrations was 0.19, 0.02 and 0.02 mg L^-1, respectively. The linear relationships of polymyxin B1, B2, and B1-Ile concentrations in the range of 0.19–24.13 mg L^-1, 0.02–2.7 mg L^-1 and 0.02–2.38 mg L^-1 were considered good (R^2 = 0.99677, R^2 = 0.99656, R^2 = 0.99484) and the accuracy was within 95.3%–105.3%, 92.2%–104.8%, and 95.8%–105.4%. […] Finally, 200 μL of the supernatant from the centrifugation of the combination at 14,000 r min^-1 for 10 min was employed to measure the amounts of polymyxin B.

[2] = Population pharmacokinetic (PPK) model, non-parametric adaptive grid (Pmetrics), critically ill patients; type: in vivo, human; details: for clearance: human
Excerpt: as §1, §2, §3
In order to analyze the total concentrations of polymyxin B, Pmetrics version 1.9.7 (Laboratory of Applied Pharmacokinetics and Bioinformatics, Los Angeles, CA) was used by R version 4.1.3 ([Neely et al., 2012]). PK parameters were evaluated by a one-compartment model and a two-compartment model. The multiplicative error model (SD ×gamma), which requires the observation concentration values to be weighted by the reciprocal of the error, was used to calculate the error structure model. Gamma is the process noise that results from incorrectly specified sampling time, dosage, etc. […]

[3] = data splitting, 20% of the data
[4] = data splitting, 80% of the data
[5] = final model 6, bootstrap, median
[6] = final model 6, full data set, 22 critically ill patients, iv, mean
[7] = final model 6, full data set, median

`CC[C@H](C)CCCCC(=O)N[C@@H](CCN)C(=O)N[C@H](C(=O)N[C@@H](CCN)C(=O)N[C@H]1CCNC(=O)[C@H]([C@@H](C)O)NC(=O)[C@H](CCN)NC(=O)[C@H](CCN)NC(=O)[C@H](CC(C)C)NC(=O)[C@@H](Cc2ccccc2)NC(=O)[C@H](CCN)NC1=O)[C@@H](C)O` [polymyxin B] (X1-[Dab]T[Dab][Dab][Dab][dF]L[Dab][Dab]T; lactam 4-C) showed a level at 84.42 h ([1]; patient ID 10, TIME 84.42, DOSE 100 at 0 then 50 every 12 to 72, DUR 1, WT 62, CCR 72.12, ALB 33.9, APACHE 17, single sample) of 3890 ng/mL, a level at 98 h ([1]; patient ID 11, TIME 98, DOSE 100 at 0 then 50 every 12 to 96, DUR 2, WT 55, CCR 67.29, ALB 30.9, APACHE 46, single sample) of 5200 ng/mL and a level at 102 h ([1]; patient ID 11, TIME 102, DOSE 100 at 0 then 50 every 12 to 96, DUR 2, WT 55, CCR 67.29, ALB 30.9, APACHE 46, single sample) of 2530 ng/mL. For the same compound, the level at 105.5 h ([1]; patient ID 11, TIME 105.5, DOSE 100 at 0 then 50 every 12 to 96, DUR 2, WT 55, CCR 67.29, ALB 30.9, APACHE 46, single sample) was 2180 ng/mL, the level at 145 h ([1]; patient ID 13, TIME 145, DOSE 75 at 0 then 50 every 12 from 12 (ADDL 12), DUR 1, WT 57, CCR 41.39, ALB 24.4, APACHE 18, single measurement) was 2590 ng/mL and the level at 150 h ([1]; patient ID 13, TIME 150, DOSE 75 at 0 then 50 every 12 from 12 (ADDL 12), DUR 1, WT 57, CCR 41.39, ALB 24.4, APACHE 18, single measurement) was 1830 ng/mL. It also gave a level at 156 h ([1]; patient ID 13, TIME 156, DOSE 75 at 0 then 50 every 12 from 12 (ADDL 12), DUR 1, WT 57, CCR 41.39, ALB 24.4, APACHE 18, single measurement) of 1090 ng/mL, a level at 50.5 h ([1]; patient ID 14, TIME 50.5, DOSE 100 at 0, 50 at 12, 24, 36, 50.8, DUR 1, WT 60, CCR 111.4, ALB 25.4, APACHE 25, single measurement) of 1140 ng/mL and a level at 51.8 h ([1]; patient ID 14, TIME 51.8, DOSE 100 at 0, 50 at 12, 24, 36, 50.8, DUR 1, WT 60, CCR 111.4, ALB 25.4, APACHE 25, single measurement) of 4060 ng/mL. For the same compound, the level at 57.8 h ([1]; patient ID 14, TIME 57.8, DOSE 100 at 0, 50 at 12, 24, 36, 50.8, DUR 1, WT 60, CCR 111.4, ALB 25.4, APACHE 25, single measurement) was 1820 ng/mL, the level at 72.66 h ([1]; patient ID 15, TIME 72.66, DOSE 100 at 0, 50 at 12, 100 at 24, 75 at 36, 48, 60, WT 50, CCR 35.85, ALB 29.5, APACHE 39, single measurement) was 3110 ng/mL and the level at 54.67 h ([1]; patient ID 19, TIME 54.67, DOSE 100 at 0 then 50 every 12 from 12 (ADDL 3), DUR 1, WT 60, CCR 35.69, ALB 25.6, APACHE 19, single measurement) was 1860 ng/mL. The level at 60 h ([1]; patient ID 19, TIME 60, DOSE 100 at 0 then 50 every 12 from 12 (ADDL 3), DUR 1, WT 60, CCR 35.69, ALB 25.6, APACHE 19, single measurement) was 1300 ng/mL, the level at 73.45 h ([1]; patient ID 20, TIME 73.45, DOSE 100 at 0 then 50 every 12 from 12 (ADDL 6), DUR 1.45, WT 75, CCR 84.86, ALB 29.5, APACHE 18, single measurement) was 4270 ng/mL and the level at 77.45 h ([1]; patient ID 20, TIME 77.45, DOSE 100 at 0 then 50 every 12 from 12 (ADDL 6), DUR 1.45, WT 75, CCR 84.86, ALB 29.5, APACHE 18, single measurement) was 2700 ng/mL. It also gave a level at 84 h ([1]; patient ID 20, TIME 84, DOSE 100 at 0 then 50 every 12 from 12 (ADDL 6), DUR 1.45, WT 75, CCR 84.86, ALB 29.5, APACHE 18, single measurement) of 1960 ng/mL, a level at 50 h ([1]; patient ID 21, TIME 50, DOSE 150 at 0 then 75 every 12 from 12 (ADDL 4), DUR 2, WT 70, CCR 56.54, ALB 38.1, APACHE 40, single measurement) of 7030 ng/mL and a level at 54 h ([1]; patient ID 21, TIME 54, DOSE 150 at 0 then 75 every 12 from 12 (ADDL 4), DUR 2, WT 70, CCR 56.54, ALB 38.1, APACHE 40, single measurement) of 3830 ng/mL. The “Q, mean value” [2, 3] was 2.56 L/h, the “Vc, mean value” [2, 3] was 13.58 L and the “Vp, mean value” [2, 3] was 64.60 L. The “Q, mean value” [2, 4] was 3.44 L/h, the “Vc, mean value” [2, 4] was 17.82 L and the “Vp, mean value” [2, 4] was 40.26 L. The “CL, bootstrap median” value [2, 5] was 1.22 L/h, the “Q, bootstrap median” value [2, 5] was 2.31 L/h and the “Vc, bootstrap median” value [2, 5] was 17.15 L. For the same compound, the “Vp, bootstrap median” value [2, 5] was 66.34 L, the “Q, mean” value [2, 6] was 3.04 L/h and the “Vc, mean” value [2, 6] was 16.64 ± 12.74 L. For the same compound, the “Vp, mean” value [2, 6] was 66.20 L, the “Q, median” value [2, 7] was 2.34 L/h and the “Vc, median” value [2, 7] was 13.52 L. For the same compound, the “Vp, median” value [2, 7] was 76.53 L, the clearance ([2]; plasma, iv, data splitting, 20% of the data, read-out: CL, mean value (converted)) was 21.8 mL/min and the clearance ([2]; plasma, iv, data splitting, 80% of the data, read-out: CL, mean value (converted)) was 22.5 mL/min. It also gave a clearance ([2]; plasma, iv, final model 6, full data set, 22 critically ill patients, iv, median, read-out: CL, median (converted)) of 20.3 mL/min and a clearance ([2]; final model 6 (two-compartment, covariates age and ALB), full data set, 22 critically ill patients, 64 samples, iv infusion, steady state, total plasma concentration, LC-MS/MS, NPAG, mean, read-out: CL, mean (converted)) of 20.7 mL/min.
